Measurements published in ChEMBL document CHEMBL3880420, “1,5-Diaryl-2-alkylpyrrole-3-Substituted Nitro Esters, Selective COX-2 Inhibitors and Nitric Oxide Donors” (2013).
Activity calls are given as the source filed them. The rule behind the calls is not given here.

Molecular target: T1, Prostaglandin G/H synthase 1 (Mus musculus) (UniProt P22437)
T1 sequence (whole entry): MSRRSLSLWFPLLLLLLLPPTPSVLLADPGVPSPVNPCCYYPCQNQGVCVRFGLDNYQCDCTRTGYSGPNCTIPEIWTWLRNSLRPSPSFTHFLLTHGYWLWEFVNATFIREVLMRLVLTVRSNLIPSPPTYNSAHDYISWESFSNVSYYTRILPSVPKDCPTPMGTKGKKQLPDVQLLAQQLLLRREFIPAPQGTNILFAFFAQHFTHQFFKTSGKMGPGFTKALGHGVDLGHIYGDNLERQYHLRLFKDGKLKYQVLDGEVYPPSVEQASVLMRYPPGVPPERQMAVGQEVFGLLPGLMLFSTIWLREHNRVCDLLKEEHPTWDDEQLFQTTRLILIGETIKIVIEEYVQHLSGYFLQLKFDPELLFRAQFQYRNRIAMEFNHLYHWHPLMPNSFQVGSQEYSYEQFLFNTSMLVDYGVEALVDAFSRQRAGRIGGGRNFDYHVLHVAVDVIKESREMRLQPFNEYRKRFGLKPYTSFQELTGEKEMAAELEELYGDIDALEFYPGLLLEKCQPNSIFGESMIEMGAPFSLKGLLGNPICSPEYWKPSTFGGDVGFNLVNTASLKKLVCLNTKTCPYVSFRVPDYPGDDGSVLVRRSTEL
Assay: Inhibition of COX1 in mouse J774 cells using arachidonic acid as substrate assessed as decrease in PGE2 production at 10 uM preincubated for 15 mins followed by substrate addition measured after 30 mins by radioimmunoassay relative to control
Type: cell-based
Conditions: not given

Row | SMILES | inhibition
1 | Cc1c(CC(=O)NCCCO)cc(-c2ccc(S(C)(=O)=O)cc2)n1-c1cccc(F)c1 | < 20%
2 | Cc1c(CCOCCO[N+](=O)[O-])cc(-c2ccc(S(C)(=O)=O)cc2)n1-c1ccc(F)cc1 | < 20%
3 | Cc1c(CC(=O)OCCCCO)cc(-c2ccc(S(C)(=O)=O)cc2)n1-c1cccc(F)c1 | < 20%
4 | Cc1c(CC(=O)OCCO[N+](=O)[O-])cc(-c2ccc(S(C)(=O)=O)cc2)n1-c1ccccc1 | < 20%
5 | Cc1c(CC(=O)OCCCCO[N+](=O)[O-])cc(-c2ccc(S(C)(=O)=O)cc2)n1-c1cccc(F)c1 | < 20%
6 | CSc1ccc(-n2c(-c3ccc(S(C)(=O)=O)cc3)cc(CC(=O)OCCO)c2C)cc1 | < 20%
7 | COc1ccc(-n2c(-c3ccc(S(C)(=O)=O)cc3)cc(CC(=O)OCCCCO[N+](=O)[O-])c2C)cc1 | < 20%
8 | Cc1c(CCOCCCO)cc(-c2ccc(S(C)(=O)=O)cc2)n1-c1cccc(F)c1 | < 20%
9 | CSc1ccc(-n2c(-c3ccc(S(C)(=O)=O)cc3)cc(CC(=O)OCCO[N+](=O)[O-])c2C)cc1 | < 20%
10 | COc1ccc(-n2c(-c3ccc(S(C)(=O)=O)cc3)cc(CC(=O)OCCO)c2C)cc1 | < 20%
11 | Cc1c(C(N)C(=O)OCCCO[N+](=O)[O-])cc(-c2ccc(S(C)(=O)=O)cc2)n1-c1ccc(F)cc1 (racemic) | < 20%
12 | Cc1c(CC(=O)NCCO[N+](=O)[O-])cc(-c2ccc(S(C)(=O)=O)cc2)n1-c1ccc(F)cc1 | < 20%
13 | Cc1c(CC(=O)NCCO)cc(-c2ccc(S(C)(=O)=O)cc2)n1-c1cccc(F)c1 | < 20%
14 | Cc1c(CCOCCCO)cc(-c2ccc(S(C)(=O)=O)cc2)n1-c1ccc(F)cc1 | < 20%
15 | Cc1c(CC(=O)OCCO)cc(-c2ccc(S(C)(=O)=O)cc2)n1-c1ccccc1 | < 20%
16 | Cc1c(CCOCCO)cc(-c2ccc(S(C)(=O)=O)cc2)n1-c1ccc(F)cc1 | < 20%
17 | Cc1c(C(N)C(=O)OCCO[N+](=O)[O-])cc(-c2ccc(S(C)(=O)=O)cc2)n1-c1ccc(F)cc1 (racemic) | < 20%
18 | Cc1c(CC(=O)OCC(CO[N+](=O)[O-])O[N+](=O)[O-])cc(-c2ccc(S(C)(=O)=O)cc2)n1-c1ccccc1 (racemic) | < 20%
19 | Cc1c(CC(=O)N[C@@H](CO[N+](=O)[O-])C(=O)O)cc(-c2ccc(S(C)(=O)=O)cc2)n1-c1cccc(F)c1 | < 20%
20 | COc1ccc(-n2c(-c3ccc(S(C)(=O)=O)cc3)cc(CC(=O)OCCCO[N+](=O)[O-])c2C)cc1 | < 20%
21 | Cc1c(CCOCCCO[N+](=O)[O-])cc(-c2ccc(S(C)(=O)=O)cc2)n1-c1ccccc1 | < 20%
22 | Cc1c(CC(=O)NC(CCO[N+](=O)[O-])C(=O)O)cc(-c2ccc(S(C)(=O)=O)cc2)n1-c1ccc(F)cc1 (racemic) | < 20%
23 | COc1ccc(-n2c(-c3ccc(S(C)(=O)=O)cc3)cc(CC(=O)OCCCCO)c2C)cc1 | < 20%
24 | Cc1c(CCOCCO[N+](=O)[O-])cc(-c2ccc(S(C)(=O)=O)cc2)n1-c1ccc(F)c(F)c1 | < 20%
25 | Cc1c(CCOCCO)cc(-c2ccc(S(C)(=O)=O)cc2)n1-c1ccc(F)c(F)c1 | < 20%
26 | Cc1c(CCOCCO[N+](=O)[O-])cc(-c2ccc(S(C)(=O)=O)cc2)n1-c1cccc(F)c1 | < 20%

Row | SMILES | inhibition
27 | Cc1c(CCOCCCO[N+](=O)[O-])cc(-c2ccc(S(C)(=O)=O)cc2)n1-c1ccc(F)cc1 | < 20%
28 | COc1ccc(-n2c(-c3ccc(S(C)(=O)=O)cc3)cc(CC(=O)OCCO[N+](=O)[O-])c2C)cc1 | < 20%
29 | Cc1c(C(N)C(=O)OCCCCO[N+](=O)[O-])cc(-c2ccc(S(C)(=O)=O)cc2)n1-c1ccc(F)cc1 (racemic) | < 20%
30 | Cc1c(CC(=O)OCCO[N+](=O)[O-])cc(-c2ccc(S(C)(=O)=O)cc2)n1-c1cccc(F)c1 | < 20%
31 | Cc1c(CC(=O)OCCO)cc(-c2ccc(S(C)(=O)=O)cc2)n1-c1cccc(F)c1 | < 20%
32 | Cc1c(CC(=O)NC(CCO)C(=O)O)cc(-c2ccc(S(C)(=O)=O)cc2)n1-c1ccc(F)cc1 (racemic) | < 20%
33 | Cc1c(CC(=O)OCCCO[N+](=O)[O-])cc(-c2ccc(S(C)(=O)=O)cc2)n1-c1cccc(F)c1 | < 20%
34 | Cc1c(CC(=O)N[C@@H](CO)C(=O)O)cc(-c2ccc(S(C)(=O)=O)cc2)n1-c1cccc(F)c1 | < 20%
35 | Cc1c(CCOCCCO[N+](=O)[O-])cc(-c2ccc(S(C)(=O)=O)cc2)n1-c1cccc(F)c1 | < 20%
36 | Cc1c(CC(=O)N[C@@H](CO[N+](=O)[O-])C(=O)O)cc(-c2ccc(S(C)(=O)=O)cc2)n1-c1ccc(F)cc1 | < 20%
37 | Cc1c(CC(=O)OCCO)cc(-c2ccc(S(C)(=O)=O)cc2)n1-c1ccc(F)cc1 | < 20%
38 | COc1ccc(-n2c(-c3ccc(S(C)(=O)=O)cc3)cc(CC(=O)OCCCO)c2C)cc1 | < 20%
39 | Cc1c(CC(=O)N[C@@H](CO)C(=O)O)cc(-c2ccc(S(C)(=O)=O)cc2)n1-c1ccc(F)cc1 | < 20%
40 | CSc1ccc(-n2c(-c3ccc(S(C)(=O)=O)cc3)cc(CC(=O)OCCCO[N+](=O)[O-])c2C)cc1 | < 20%
41 | Cc1c(CCOCCO[N+](=O)[O-])cc(-c2ccc(S(C)(=O)=O)cc2)n1-c1ccccc1 | < 20%
42 | Cc1c(CCOCCO)cc(-c2ccc(S(C)(=O)=O)cc2)n1-c1cccc(F)c1 | < 20%
43 | Cc1c(CC(=O)NCCO)cc(-c2ccc(S(C)(=O)=O)cc2)n1-c1ccc(F)cc1 | < 20%
44 | Cc1c(CC(=O)NC(CCO[N+](=O)[O-])C(=O)O)cc(-c2ccc(S(C)(=O)=O)cc2)n1-c1cccc(F)c1 (racemic) | < 20%
45 | CSc1ccc(-n2c(-c3ccc(S(C)(=O)=O)cc3)cc(CC(=O)OCCCCO[N+](=O)[O-])c2C)cc1 | < 20%
46 | Cc1c(CC(=O)NCCCO)cc(-c2ccc(S(C)(=O)=O)cc2)n1-c1ccc(F)cc1 | < 20%
47 | Cc1c(CCOCCO)cc(-c2ccc(S(C)(=O)=O)cc2)n1-c1ccccc1 | < 20%
48 | CSc1ccc(-n2c(-c3ccc(S(C)(=O)=O)cc3)cc(CC(=O)OCCCCO)c2C)cc1 | < 20%
49 | CSc1ccc(-n2c(-c3ccc(S(C)(=O)=O)cc3)cc(CC(=O)OCCCO)c2C)cc1 | < 20%
50 | Cc1c(CC(=O)OCCCCO[N+](=O)[O-])cc(-c2ccc(S(C)(=O)=O)cc2)n1-c1ccc(F)cc1 | < 20%
51 | Cc1c(CC(=O)OCCCO)cc(-c2ccc(S(C)(=O)=O)cc2)n1-c1cccc(F)c1 | < 20%
52 | Cc1c(CC(=O)OCCO[N+](=O)[O-])cc(-c2ccc(S(C)(=O)=O)cc2)n1-c1ccc(F)cc1 | < 20%

System: Liver
Assay: Induction of nitric oxide release in rat liver assessed as time require for amount of nitrite release by test compound equal to half its maximum release at 1 mM by amperometric method
Type: functional
Conditions: not given

Row | SMILES | T1/2
53 | Cc1c(CCOCCO[N+](=O)[O-])cc(-c2ccc(S(C)(=O)=O)cc2)n1-c1ccc(F)cc1 | 0.713 h
54 | O=C(NCCO[N+](=O)[O-])c1cccnc1 | 0.463 h
55 | Cc1c(CCOCCO[N+](=O)[O-])cc(-c2ccc(S(C)(=O)=O)cc2)n1-c1ccc(F)c(F)c1 | 1.14 h
56 | Cc1c(CCOCCO[N+](=O)[O-])cc(-c2ccc(S(C)(=O)=O)cc2)n1-c1cccc(F)c1 | 1.01 h
57 | Cc1c(CCOCCCO[N+](=O)[O-])cc(-c2ccc(S(C)(=O)=O)cc2)n1-c1cccc(F)c1 | 1.41 h
58 | Cc1c(CC(=O)OCCO[N+](=O)[O-])cc(-c2ccc(S(C)(=O)=O)cc2)n1-c1ccc(F)cc1 | 1.15 h

System: not listed separately
Assay: Vasorelaxing effect in Wistar rat thoracic aorta ring assessed as reduction of KCl-induced contractile tone at 10 uM in presence of guanylate cyclase inhibitor ODQ1
Type: functional
Conditions: not given

Row | SMILES | Activity
59 | Cc1c(C(N)C(=O)OCCCO[N+](=O)[O-])cc(-c2ccc(S(C)(=O)=O)cc2)n1-c1ccc(F)cc1 (racemic) | Active
60 | Cc1c(C(N)C(=O)OCCCCO[N+](=O)[O-])cc(-c2ccc(S(C)(=O)=O)cc2)n1-c1ccc(F)cc1 (racemic) | Active
61 | CSc1ccc(-n2c(-c3ccc(S(C)(=O)=O)cc3)cc(CC(=O)OCCCCO[N+](=O)[O-])c2C)cc1 | Active

System: Liver
Assay: Induction of nitric oxide release in rat liver assessed as increase in nitrite levels at 1 mM by amperometric method
Type: functional, tissue-based
Conditions: TDE = time-dependent effect

Row | SMILES | Activity
62 | COc1ccc2cc([C@H](C)C(=O)OCCCCO[N+](=O)[O-])ccc2c1 | Tde
63 | Cc1c(CCOCCCO[N+](=O)[O-])cc(-c2ccc(S(C)(=O)=O)cc2)n1-c1cccc(F)c1 | Tde
